The record followed here is patent US20200239530A1, “COMPOUNDS AND METHODS OF MODULATING PROTEIN DEGRADATION” (Vividion Therapeutics, Inc., priority 2017, published 2020).

In this assay the target is T1, AGPAT6 Glycerol-3-phosphate acyltransferase 4 (Homo sapiens, UniProt Q86UL3).
T1 construct: Cells were resuspended in cold PBS on ice and sonicated with a probe sonicator to achieve lysis; endogenous in cells
T1 sequence (Q86UL3 38-456): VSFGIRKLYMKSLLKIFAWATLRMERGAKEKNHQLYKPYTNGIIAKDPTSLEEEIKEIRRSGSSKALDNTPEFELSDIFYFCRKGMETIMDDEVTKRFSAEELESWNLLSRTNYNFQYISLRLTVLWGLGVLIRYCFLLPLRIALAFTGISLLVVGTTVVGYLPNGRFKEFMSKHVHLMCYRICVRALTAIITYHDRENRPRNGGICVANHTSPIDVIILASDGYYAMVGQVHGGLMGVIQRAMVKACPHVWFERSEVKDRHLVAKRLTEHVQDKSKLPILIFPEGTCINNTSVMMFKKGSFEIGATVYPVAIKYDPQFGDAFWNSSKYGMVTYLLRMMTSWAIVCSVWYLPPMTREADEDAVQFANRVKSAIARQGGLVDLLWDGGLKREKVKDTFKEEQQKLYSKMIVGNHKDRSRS
Kind of assay: Cysteine liganding, probe competition. The assay is classed as binding. To be noted: for Liganded: AGPAT6 Res# 325, uniprot Q86UL3. The method, boiled down:
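Steps: sonicate cells in cold PBS; treat 5 mg/ml lysate with compound (25° C, 1 hr); add desthiobiotin iodoacetamide probe from a 10 mM stock (25° C, 1 hr); precipitate, reduce, alkylate, digest with trypsin; capture labelled peptides on streptavidin for analysis.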

Molecules are shown by their SMILES.

`O=C(CCl)Nc1cc(C(F)(F)F)cc(C(F)(F)F)c1` [KBO3]: the Liganded entry is listed as “YES”. Moreover, for the setting “uniprot Q86UL3”, the “100 Max” value worked out at 66.91, the 100 ave came out at 65.705, the “500 Max” value is given as 85.19 and the 500 ave turned out to be 85.19.

For `COc1ccc2c(c1)CCCN2C(=O)CCl` [KB02], the Liganded entry is “YES”.
